According to patent US9062041B2 (Bayer Intellectual Property GmbH, priority 2011, dated 2015):

What was measured:
Type in all cases: cell-based
[1] = biological target: EP2 subtype of the human PGE2 receptor (Homo sapiens, UniProt P43116); assay: cAMP antagonism test on the human EP2 receptor (HTRF cAMP detection); details: hEP2 receptor, read-out: Antagonism hEP2 IC50
Method in brief: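 Read-out is a competitive HTRF for cAMP: lysate cAMP displaces cAMP-d2 from Eu cryptate-labelled antibody, and antagonism raises the 665/620 nm ratio. Compound (0.8 nM–16.5 μM) added to EP2 cells 20 min at RT before 60 min PGE2 challenge (3× stock 1.5 nM) with IBMX, followed by 20 min lysis.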

[2] = biological target: EP4 subtype of the human PGE2 receptor (Homo sapiens, UniProt P35408); assay: cAMP antagonism test on the human EP4 receptor (HTRF cAMP detection); details: selectivity towards hEP4, IC50 measured by cAMP antagonism test
Method in brief: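 Competitive HTRF cAMP read-out (cAMP-d2 vs Eu-cryptate anti-cAMP antibody, 665/620 nm ratio) on lysed human EP4 cells. Compound (0.8 nM–16.5 μM) applied 20 min at RT before 60 min PGE2 challenge (3× solution 0.3 nM, IBMX present); 20 min lysis precedes reading.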

[3] = biological target: T1, human PGD receptor (Homo sapiens, UniProt Q13258); assay: cAMP antagonism test on the human prostaglandin D receptor (HTRF cAMP detection); details: selectivity towards hDP, IC50 measured by cAMP antagonism test
T1 sequence (Q13258 1-359): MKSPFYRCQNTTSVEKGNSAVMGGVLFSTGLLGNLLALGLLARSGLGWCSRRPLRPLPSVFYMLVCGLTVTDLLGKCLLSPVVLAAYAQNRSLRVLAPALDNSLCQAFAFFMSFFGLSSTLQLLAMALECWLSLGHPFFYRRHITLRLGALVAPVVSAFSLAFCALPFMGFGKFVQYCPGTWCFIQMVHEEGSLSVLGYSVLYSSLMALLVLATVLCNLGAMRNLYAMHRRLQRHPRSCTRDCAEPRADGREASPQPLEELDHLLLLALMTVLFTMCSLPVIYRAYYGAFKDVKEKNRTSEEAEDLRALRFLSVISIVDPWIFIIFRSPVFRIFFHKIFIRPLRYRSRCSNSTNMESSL
Method in brief: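 HTRF competition read-out (665/620 nm ratio ×10000), where higher FRET means less cAMP, i.e. antagonism. Compounds (0.8 nM–16.5 μM) were preincubated 20 min at RT with cells and cAMP-d2, PGD2 (3× solution, 6 nM) in IBMX-containing PBS added for 30 min at RT, then cells lysed 20 min.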

EP2 subtype of the human PGE2 receptor, sequence (P43116 whole entry): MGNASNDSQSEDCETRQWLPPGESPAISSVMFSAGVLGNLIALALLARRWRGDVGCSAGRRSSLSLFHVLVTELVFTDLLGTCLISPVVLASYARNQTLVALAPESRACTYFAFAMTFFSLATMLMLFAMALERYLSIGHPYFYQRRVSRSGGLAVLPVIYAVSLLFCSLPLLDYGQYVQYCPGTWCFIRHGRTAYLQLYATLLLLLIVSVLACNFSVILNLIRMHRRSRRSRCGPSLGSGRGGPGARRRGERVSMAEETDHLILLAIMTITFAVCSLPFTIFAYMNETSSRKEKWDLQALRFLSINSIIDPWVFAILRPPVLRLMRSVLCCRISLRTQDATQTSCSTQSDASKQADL
EP4 subtype of the human PGE2 receptor, sequence (P35408 whole entry): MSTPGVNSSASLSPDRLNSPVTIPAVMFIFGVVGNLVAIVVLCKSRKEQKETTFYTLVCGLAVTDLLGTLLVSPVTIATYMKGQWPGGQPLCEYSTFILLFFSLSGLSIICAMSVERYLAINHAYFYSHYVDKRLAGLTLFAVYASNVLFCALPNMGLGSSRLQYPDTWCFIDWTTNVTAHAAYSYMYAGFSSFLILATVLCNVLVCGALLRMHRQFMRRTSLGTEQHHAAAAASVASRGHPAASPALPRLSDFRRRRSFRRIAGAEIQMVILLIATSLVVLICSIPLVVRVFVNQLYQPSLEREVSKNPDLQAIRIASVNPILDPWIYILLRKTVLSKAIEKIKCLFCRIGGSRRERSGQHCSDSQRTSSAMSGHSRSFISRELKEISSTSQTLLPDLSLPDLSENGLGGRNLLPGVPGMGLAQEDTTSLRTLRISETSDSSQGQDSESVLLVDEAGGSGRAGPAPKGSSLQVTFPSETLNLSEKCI

In the case of COCCNC(=O)c1ccc2nn(CC3CCN(C(=O)c4ccc(-c5cncc(F)c5)cc4)CC3)cc2c1C [Example 386, 2-({1-[4-(5-fluoropyridin-3-yl)benzoyl]piperidin-4-yl}methyl)-N-(2-methoxy-ethyl)-4-methyl-2H-indazol-5-carboxamide], the IC50 [1] is reported as 25.7 nM, the “Selectivity hEP2/hEP4” value [2] is reported as “xxx (xxx > 100)” and the “Selectivity hEP2/hDP” value [3] is reported as “xxx (xxx > 100)”.
In the case of COCCNC(=O)c1ccc2nn(CC3CCN(C(=O)c4ccc(-c5cncc(C(F)(F)F)c5)cc4)CC3)cc2c1C [Example 387, N-(2-methoxyethyl)-4-methyl-2-[(1-{4-[5-(trifluoromethyl)pyridin-3-yl]-benzoyl}piperidin-4-yl)methyl]-2H-indazol-5-carboxamide], the IC50 [1] is reported as 13.2 nM, the “Selectivity hEP2/hEP4” value [2] is reported as “xxx (xxx > 100)” and the “Selectivity hEP2/hDP” value [3] is reported as “xxx (xxx > 100)”.
For COCCNC(=O)c1ccc2nn(CC3CCN(C(=O)c4ccc(-c5ccc(C(C)(C)O)cc5)cc4)CC3)cc2c1C [Example 388, 2-[(1-{[4′-(1-hydroxy-1-methylethyl)biphenyl-4-yl]carbonyl}piperidin-4-yl)-methyl]-N-(2-methoxyethyl)-4-methyl-2H-indazol-5-carboxamide], the IC50 [1] was 20.5 nM, the “Selectivity hEP2/hEP4” value [2] was “xxx (xxx > 100)” and the “Selectivity hEP2/hDP” value [3] was “xxx (xxx > 100)”.
COCCNC(=O)c1ccc2nn(CC3CCN(C(=O)c4ccc(-c5cc(F)cc(F)c5)cc4)CC3)cc2c1C [Example 389, 2-({1-[(3′,5′-difluorobiphenyl-4-yl)carbonyl]piperidin-4-yl}methyl)-N-(2-methoxyethyl)-4-methyl-2H-indazol-5-carboxamide] was tested, and the IC50 [1] was 4.51 nM, the “Selectivity hEP2/hEP4” value [2] was “xxx (xxx > 100)” and the “Selectivity hEP2/hDP” value [3] was “xxx (xxx > 100)”.
With COCCNC(=O)c1ccc2nn(CC3CCN(C(=O)c4ccc(-c5ccc(F)cc5)c(C)c4)CC3)cc2c1C [Example 390, 2-({1-[(4′-fluoro-2-methylbiphenyl-4-yl)carbonyl]piperidin-4-yl}methyl)-N-(2-methoxyethyl)-4-methyl-2H-indazol-5-carboxamide] the IC50 [1] was 3.14 nM, the “Selectivity hEP2/hEP4” value [2] was “xxx (xxx > 100)” and the “Selectivity hEP2/hDP” value [3] was “xxx (xxx > 100)”.
COCCNC(=O)c1ccc2nn(CC3CCN(C(=O)c4ccc(-c5cc(F)cc(F)c5)c(C)c4)CC3)cc2c1C [Example 391, 2-({1-[(3′,5′-difluoro-2-methylbiphenyl-4-yl)carbonyl]piperidin-4-yl}methyl)-N-(2-methoxyethyl)-4-methyl-2H-indazol-5-carboxamide] was tested, and the IC50 [1] was 6.07 nM, the “Selectivity hEP2/hEP4” value [2] was “xxx (xxx > 100)” and the “Selectivity hEP2/hDP” value [3] was “xxx (xxx > 100)”.
With COCCNC(=O)c1ccc2nn(CC3CCN(C(=O)c4ccc(-c5cccnc5)c(C)c4)CC3)cc2c1C [Example 392, N-(2-methoxyethyl)-4-methyl-2-({1-[3-methyl-4-(3-pyridyl)benzoyl]piperidin-4-yl}methyl)-2H-indazol-5-carboxamide] the IC50 [1] was 21.8 nM, the “Selectivity hEP2/hEP4” value [2] was “xxx (xxx > 100)” and the “Selectivity hEP2/hDP” value [3] was “xxx (xxx > 100)”.
COCCNC(=O)c1ccc2nn(CC3CCN(C(=O)c4ccc(-c5ccncc5)c(C)c4)CC3)cc2c1C [Example 393, N-(2-methoxyethyl)-4-methyl-2-({1-[3-methyl-4-(4-pyridyl)benzoyl]piperidin-4-yl}methyl)-2H-indazol-5-carboxamide] was tested, and the IC50 [1] was 50 nM, the “Selectivity hEP2/hEP4” value [2] was “xxx (xxx > 100)” and the “Selectivity hEP2/hDP” value [3] was “xxx (xxx > 100)”.
For COCCNC(=O)c1ccc2nn(CC3CCN(C(=O)c4ccc(-c5ccccc5)c(C)c4)CC3)cc2c1C [Example 394, N-(2-methoxyethyl)-4-methyl-2-({1-[(2-methylbiphenyl-4-yl)carbonyl]piperidin-4-yl}methyl)-2H-indazol-5-carboxamide], the IC50 [1] was 5.7 nM, the “Selectivity hEP2/hEP4” value [2] was “xxx (xxx > 100)” and the “Selectivity hEP2/hDP” value [3] was “xxx (xxx > 100)”.
Cc1c(C(=O)NCCS(C)(=O)=O)ccc2nn(CC3CCN(C(=O)c4ccc(Br)cc4)CC3)cc12 [Example 395, 2-{[1-(4-bromobenzoyl)piperidin-4-yl]methyl}-N-(2-mesylethyl)-4-methyl-2H-indazol-5-carboxamide] was tested, and the IC50 [1] was 30.4 nM, the “Selectivity hEP2/hEP4” value [2] was “xxx (xxx > 100)” and the “Selectivity hEP2/hDP” value [3] was “xxx (xxx > 100)”.
Cc1c(C(=O)NCCS(C)(=O)=O)ccc2nn(CC3CCN(C(=O)c4ccc(Oc5ccc(C(F)(F)F)cn5)cc4)CC3)cc12 [Example 396, N-(2-mesylethyl)-4-methyl-2-{[1-(4-{[5-(trifluoromethyl)pyridin-2-yl]oxy}-benzoyl)piperidin-4-yl]methyl}-2H-indazol-5-carboxamide] was tested, and the IC50 [1] was 18 nM, the “Selectivity hEP2/hEP4” value [2] was “xxx (xxx > 100)” and the “Selectivity hEP2/hDP” value [3] was “xxx (xxx > 100)”.
In the case of Cc1c(C(=O)NCCS(C)(=O)=O)ccc2nn(CC3CCN(C(=O)c4ccc(Oc5ccc(C(F)(F)F)nc5)cc4)CC3)cc12 [Example 397, N-(2-mesylethyl)-4-methyl-2-{[1-(4-{[6-(trifluoromethyl)pyridin-3-yl]oxy}-benzoyl)piperidin-4-yl]methyl}-2H-indazol-5-carboxamide], the IC50 [1] is reported as 12.5 nM, the “Selectivity hEP2/hEP4” value [2] is reported as “xxx (xxx > 100)” and the “Selectivity hEP2/hDP” value [3] is reported as “xxx (xxx > 100)”.
For Cc1c(C(=O)NCCS(C)(=O)=O)ccc2nn(CC3CCN(C(=O)c4ccc(-c5ccc(F)cc5F)cc4)CC3)cc12 [Example 398, 2-({1-[(2′,4′-difluorobiphenyl-4-yl)carbonyl]piperidin-4-yl}methyl)-N-(2-mesylethyl)-4-methyl-2H-indazol-5-carboxamide], the IC50 [1] was 18.2 nM, the “Selectivity hEP2/hEP4” value [2] was “xxx (xxx > 100)” and the “Selectivity hEP2/hDP” value [3] was “xxx (xxx > 100)”.
With Cc1c(C(=O)NCCC(C)(C)O)ccc2nn(CC3CCN(C(=O)c4ccc(Cl)cc4)CC3)cc12 [Example 399, 2-{[1-(4-chlorobenzoyl)piperidin-4-yl]methyl}-N-(3-hydroxy-3-methylbutyl)-4-methyl-2H-indazol-5-carboxamide] the IC50 [1] was 593 nM, the “Selectivity hEP2/hEP4” value [2] was “xx (xx: 10-100)” and the “Selectivity hEP2/hDP” value [3] was “xx (xx: 10-100)”.
With Cc1c(C(=O)NCCC#N)ccc2nn(CC3CCN(C(=O)c4ccc(Cl)cc4)CC3)cc12 [Example 400, 2-{[1-(4-chlorobenzoyl)piperidin-4-yl]methyl}-N-(2-cyanoethyl)-4-methyl-2H-indazol-5-carboxamide] the IC50 [1] was 56.1 nM, the “Selectivity hEP2/hEP4” value [2] was “xxx (xxx > 100)” and the “Selectivity hEP2/hDP” value [3] was “xxx (xxx > 100)”.
For Cc1c(C(=O)NCC#N)ccc2nn(CC3CCN(C(=O)c4ccc(Cl)cc4)CC3)cc12 [Example 401, 2-{[1-(4-chlorobenzoyl)piperidin-4-yl]methyl}-N-(cyanomethyl)-4-methyl-2H-indazol-5-carboxamide], the IC50 [1] was 155 nM, the “Selectivity hEP2/hEP4” value [2] was “xxx (xxx > 100)” and the “Selectivity hEP2/hDP” value [3] was “xxx (xxx > 100)”.
Cc1c(C(=O)NCC2CC2)ccc2nn(CC3CCN(C(=O)c4ccc(Cl)cc4)CC3)cc12 [Example 402, 2-{[1-(4-chlorobenzoyl)piperidin-4-yl]methyl}-N-(cyclopropylmethyl)-4-methyl-2H-indazol-5-carboxamide] was tested, and the IC50 [1] was 77.7 nM, the “Selectivity hEP2/hEP4” value [2] was “xxx (xxx > 100)” and the “Selectivity hEP2/hDP” value [3] was “xxx (xxx > 100)”.
In the case of Cc1c(C(=O)NCC2CCC2)ccc2nn(CC3CCN(C(=O)c4ccc(Oc5ccc(C(F)(F)F)cc5)cc4)CC3)cc12 [Example 403, N-(cyclobutylmethyl)-4-methyl-2-[(1-{4-[4-(trifluoromethyl)phenoxy]benzoyl}-piperidin-4-yl)methyl]-2H-indazol-5-carboxamide], the IC50 [1] is reported as 9.59 nM, the “Selectivity hEP2/hEP4” value [2] is reported as “xxx (xxx > 100)” and the “Selectivity hEP2/hDP” value [3] is reported as “xxx (xxx > 100)”.
